For the experiment, the target named is T1, Est_p6 (uncultured bacterium, UniProt D7NJ22).
T1 construct: predicted signal peptide (residues 1-26) removed, from residue 27 of 357; C-terminal 6xHis tag kept (pET-28a, NcoI/HindIII); E. coli BL21(DE3); Ni-NTA; 36 kDa by SDS-PAGE
Briefly: spectrophotometric pNP release at […] nm, Lineweaver-Burk. Type of experiment: biochemical. The conditions noted are these: 50 mM Tris-HCl pH 8.60, 50°C, 4% ethanol.

Among the data in PMC3880967, “Isolation of a novel alkaline-stable lipase from a metagenomic library and its specific application for milkfat flavor production” (Microbial Cell Factories, 2014) are Km values, retold here.

T1 sequence (D7NJ22 27-357 limits assumed): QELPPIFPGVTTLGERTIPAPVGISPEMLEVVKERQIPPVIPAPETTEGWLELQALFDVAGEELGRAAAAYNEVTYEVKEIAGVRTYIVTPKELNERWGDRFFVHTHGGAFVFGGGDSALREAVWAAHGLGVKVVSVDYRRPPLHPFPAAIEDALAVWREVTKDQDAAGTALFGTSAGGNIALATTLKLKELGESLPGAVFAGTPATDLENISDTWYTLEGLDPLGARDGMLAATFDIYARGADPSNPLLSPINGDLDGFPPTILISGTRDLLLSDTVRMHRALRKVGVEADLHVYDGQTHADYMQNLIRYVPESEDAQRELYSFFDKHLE

With `CC(=O)Oc1ccc([N+](=O)[O-])cc1` [C2, pNP acetate], the Km was found to be 2640 µM.

Consider `CCCC(=O)Oc1ccc([N+](=O)[O-])cc1` [C4, pNP butyrate], for which the Michaelis-Menten constant (Km) amounted to 1150 µM.

With `CCCCCCCC(=O)Oc1ccc([N+](=O)[O-])cc1` [C8, pNP caprylate], the Km came out at 322 µM.

As to `CCCCCCCCCC(=O)Oc1ccc([N+](=O)[O-])cc1` [C10, pNP caprate], the Km is 1280 µM.

For the molecule `CCCCCCCCCCCC(=O)Oc1ccc([N+](=O)[O-])cc1` [C12, pNP laurate], the Km worked out at 149 µM.

As usually defined, the Km is the substrate concentration at which the rate is half of its maximum.
